Values joined by “and” are separate entries in the source; they are usually repeats but may differ in a detail not shown here. Identical values can stand only once.
Assays:
hCAP18 [1] = conditions: keratinocytes and leukocytes in vitro; cited from earlier work
hCAP18 promoter = test: Stimulation of the hCAP18 promoter at different concentrations (FIG. 4); format: cell-based, human; conditions: tested at 1, 10, 100 and 1000 nM
Protocol: To assess whether physiological levels were sufficient to induce the stimulation of the hCAP18 promoter, the study was performed at the different concentrations 1, 10, 100 and 1000 nM of 1,25-(OH)2-D3 and 25-OH-D3 (FIG. 4). […] The physiologic serum concentration of 25-OH-vitamin D3 is between 20 nM and 125 nM, whereas the 1,25-(OH)2-D3 is present in pM concentration. A dosage form of a vitamin D compound for topical administration includes for instance about 1-100, preferably 5-50 μg vitamin D compound per gram composition.

hCAP18 [2] = test: hCAP18 mRNA in skin of atopic dermatitis patients, Real-Time PCR; format: in vivo, human; design: hCAP18 mRNA, Non-lesional skin, Treated / hCAP18 mRNA, Lesional skin, Treated: unit not given here; conditions: 0.002% topical, 4 days, one patient per row
Protocol: To assay whether 1,25-(OH)2-D3 stimulated hCAP18 expression in atopic dermatitis, we applied 1,25-(OH)2-D3 on the skin of four individuals, two females and two men, with active atopic dermatitis. The patients had suffered from the eczema for 11-30 years. The diagnosis was made by a dermatologist. A stock solution of 4 mM 1,25-(OH)2-D3 in isopropanol was diluted in ethanol:propylene glycol (70:30) to a final concentration of 0.002%. To prevent deactivation of 1,25-(OH)2-D3, the procedure was performed in a room with dim light. The 1,25-(OH)2-D3 were locally applied on lesional and non-lesional skin area of patients. The skin surface was cleaned with saline solution (NaCl 0.9) before application. The treated skin area was measured to 2×2.25 cm. Evaporation time for the solutions of 1,25-(OH)2-D3 varied between 8 and 15 minutes. The skin area was then covered with plastic film and band-aid (Quickpack: Haushalt und Hygiene GmbH, Renningen, Germany; Melolin: Smith and Nephew, Hull, UK; Mefix: Molnlycke A B, Gothenburg, Sweden). After 4 days the band-aid and the plastic film were removed and the skin areas were rapidly cleaned with 40% ethanol. Punch biopsies (4 mm) were obtained from the treated skin areas (after infiltration anesthesia with 2-3 ml Xylocaln with epinephrin) and frozen instantly. On the first day, control biopsies were also obtained from non-treated lesional and non-lesional skin and the tissues were snap-frozen as described. RNA was extracted and hCAP18 mRNA expression determined by Real-Time PCR as described above in Example 1.

hCAP18 [3] = test: hCAP18/LL-37 expression in skin of healthy volunteers after topical application; format: in vivo, human; conditions: 0.002% solution topical, 4 days, three healthy volunteers
Protocol: To assay whether 1,25-(OH)2-D3 stimulated hCAP18 expression in vivo, we applied 1,25-(OH)2D3 to the skin of three healthy individuals.
A stock solution of 4 mM 1,25-dihydroxyvitamin D3 in isopropanol was diluted in ethanol:propylene glycol [70:30] to a final vitamin D concentration of 0.002%. The vehicle containing ethanol 96% and propylene glycol [70:30] with 0.5 mg/ml BHT (butylated hydroxy toluene) served as control. In a room with dim light, the vitamin D and the control were locally applied to the skin (the right and left upper arm respectively) of three healthy volunteers. The test area of 2×2.5 cm on each arm was cleaned with saline solution (NaCl 0.9) before application. Evaporation time for the solutions of vitamin D and the vehicle varied between 8 and 15 minutes. The tested area was then covered with plastic film and band-aid (Gladpack, Melolin and Mefix). After 4 days the band-aid and the plastic film was removed and the test area was rapidly cleaned with 40% ethanol. Punch biopsies (4 mm) were obtained from the test area (after infiltration anesthesia with 2-3 ml Xylocaln with epinefrin) and were frozen instantly. […] Protein concentrations were measured by Protein Assay Kit (Bio-Rad Laboratories, Hercules Calif.) based on the Bradford method (Bradford, 1976) and samples were diluted to a final protein concentration of 1 mg per ml. […]

dermatitis = conditions: topical, 0.03-1.0 μg/g of composition; type of dermatitis not stated; cited from earlier work
hCAP18 [4] = test: hCAP18 mRNA in acute surgical wounds of healthy volunteers, Real-Time RT-PCR; format: in vivo, human; conditions: topical, 24 h, nine probands, relative to vaseline control wound
Protocol: To assess whether treatment with a vitamin D compound can further enhance the up-regulation of hCAP18 during acute skin injury, fresh surgical wounds in healthy volunteers (n=9) were treated with vitamin D ointment.
(§1) The investigation was non-randomized, single blinded including four females and five males, age 22-30 years. Only fair skinned, young and healthy individuals were included and the tissue was obtained from the same body location in a non-sun exposed area. Each individual obtained 3 wounds in the left and the right inguinal region, respectively. The topical treatment with vitamin D was applied on one side and the control treatment on the contra lateral side. To each of the wounds on one side, 25 μg calcipotriol in 0.5 g ointment (Daivonex, LEO Pharma, Malmo, Sweden) was applied to a total test area of 2×2.25 cm, including one wound with surrounding intact skin. The control wounds in the opposite inguinal region were treated with vaseline (ACO, Stockholm, Sweden). All wounds were covered with inert dressing (Melolin, Smith and Nephew, Hull, U K; Mefix, Molnlycke A B, Gothenburg, Sweden; Tegaderm, 3M Health Care, St. Paul, USA). After 12 hours the dressing was changed and the treatment was repeated. […]
Expression of hCAP18 mRNA was quantified by Real-Time PCR, as described in Example 1. […]

hCAP18/LL-37 = test: hCAP18 and LL-37 protein in acute wounds, Western blot; format: in vivo, human
From the text: as §1, with “repeated. In the first four individuals investigated the bandage was removed at 24 hours and the wounds were excised with a 6 mm biopsy punch and snap frozen.” for “repeated.”
Protein was calculated from frozen biopsies from patients (n=5) cut in 50 μm sections and homogenized. […] Protein concentrations were measured by Protein Assay Kit (Bio-Rad Laboratories, Hercules, USA) based on the Bradford method (Bradford 1976). […]

| Compound | expression of hCAP18 (hCAP18 [1]) | level down to which a substantial portion of stimulation remained (hCAP18 promoter) [nM] | Increase (treated/untreated), Lesional skin (hCAP18 [2]; lesional skin) | hCAP18 mRNA, Lesional skin, Treated (hCAP18 [2]; lesional skin) | Increase (treated/untreated), Non-lesional skin (hCAP18 [2]; non-lesional skin) | hCAP18 mRNA, Non-lesional skin, Treated (hCAP18 [2]; non-lesional skin) | expression of hCAP18 and production of LL-37 in human skin in vivo (hCAP18 [3]) | effect on dermatitis (dermatitis) | up-regulation of hCAP18 mRNA in acute wounds (hCAP18 [4]) | immunoreactive bands of the processed peptide LL-37 versus control wounds (hCAP18/LL-37) | immunoreactive bands of the 18 kDa hCAP18 holoprotein versus control wounds (hCAP18/LL-37; 24 and 48 hours, five individuals) |
| --- | --- | --- | --- | --- | --- | --- | --- | --- | --- | --- | --- |
| C=C1/C(=C\C=C2/CCC[C@]3(C)[C@@H]([C@H](C)CCCC(C)(C)O)CC[C@@H]23)C[C@@H](O)C[C@@H]1O [1,25-(OH)2-D3, 1,25-dihydroxy-cholecalciferol] | directly induces | 10 | 5638% and 79756% and 977% and 220% | 1093 and 539 and 64 and 29 | 13104% and 520% and 841% and 459% | 739.4 and 24.8 and 24.2 and 8.1 | Up-Regulates | marked effect | – | – | – |
| C=C1/C(=C\C=C2/CCC[C@]3(C)[C@@H]([C@H](C)/C=C/[C@@H](O)C4CC4)CC[C@@H]23)C[C@@H](O)C[C@@H]1O [calcipotriol] | – | – | – | – | – | – | – | – | enhances the up-regulation of hCAP18 mRNA | in all three individuals, stronger immunoreactive bands | three of the five individuals investigated demonstrated stronger immunoreactive bands |
